Results on 13 molecules are retold here after publication PMC9945863, “Pyridine based dual binding site aromatase (CYP19A1) inhibitors” (RSC Medicinal Chemistry, 2023).

Where two headings read alike, the source gives them in different places. Bounds are passed on as bounds.

In one data set the target is T1, Aromatase (CYP19A1) (Homo sapiens, UniProt P11511).
T1 construct: placental choriocarcinoma JEG-3 cells, known to have high aromatase activity; host or cells: JEG-3
T1 sequence (P11511 1-503): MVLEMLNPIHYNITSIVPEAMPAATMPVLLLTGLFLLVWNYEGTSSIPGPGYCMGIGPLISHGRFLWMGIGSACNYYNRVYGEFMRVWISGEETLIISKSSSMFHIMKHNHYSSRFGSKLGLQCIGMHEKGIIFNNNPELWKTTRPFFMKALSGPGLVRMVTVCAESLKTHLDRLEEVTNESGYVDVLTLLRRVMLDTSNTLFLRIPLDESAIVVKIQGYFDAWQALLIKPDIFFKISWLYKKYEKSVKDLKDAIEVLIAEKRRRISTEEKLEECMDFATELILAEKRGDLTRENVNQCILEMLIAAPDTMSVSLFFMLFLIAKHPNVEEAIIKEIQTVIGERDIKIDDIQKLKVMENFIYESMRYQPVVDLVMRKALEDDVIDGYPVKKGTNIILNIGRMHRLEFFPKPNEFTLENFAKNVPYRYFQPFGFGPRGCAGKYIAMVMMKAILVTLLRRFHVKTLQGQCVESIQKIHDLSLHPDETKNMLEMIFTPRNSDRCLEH
Kind of data set: Aromatase activity, modified tritiated water assay in JEG-3 cells. The class given is cell-based. The protocol: Briefly, placental choriocarcinoma JEG-3 cells, known to have high aromatase activity, were grown to approximately 80% confluence in six-well culture plates. Once established, cells were treated with androst-4-ene-3,17-dione[1β-^3H] as aromatase substrate. Aromatase activity was measured in the absence and presence of inhibitors (Fig. 3).
Aromatase activity results were determined as a concentration of product formed per mg of protein per hour.
Aromatase activity was assayed using a modified tritiated water assay as previously reported.[12] JEG-3 cells were grown in 1 mL EMEM to approximately 80% confluence in six-well cell culture plates. Androst-4-ene-3,17-dione[1β-^3H] was dissolved in serum-free cell culture medium and added into each well. Aromatase activity was measured in the absence and presence of inhibitor (0.001–10 nM). After a 1 h incubation at 37 °C followed by a 5 min incubation on ice, 500 μL of culture medium was taken from each well. Medium was vortexed with 2% dextran-treated charcoal (Sigma-Aldrich) in PBS and centrifuged at 4000 rpm. The supernatant containing the product, [^3H] H2O, was quantified by scintillation counting. Cell protein concentrations were determined using Pierce BCA assay kit (Thermo Fisher Scientific). Aromatase activity results were determined as a concentration of product formed per mg of protein per hour (pmol mg^−1 h^−1).

Data set [1] addresses T2, CYP2C9 (relative to CYP19A1) (Homo sapiens, UniProt P11712).
T2 construct: using a human liver microsomal assay with a CYP isoform specific probe substrate; tissue Cyprotex Discovery Limited; host or cells: human liver microsomes
Kind of data set: CYP panel inhibition, human liver microsomal assay (Cyprotex). The class given is in vitro ADME. Particulars: human, human liver microsomes; ratio of CYP IC50 to CYP19A1 IC50; read-out: Selectivity CYP19A1 compared with CYP2C9. (Microsomes from liver hold many membrane-bound enzymes, among them those of drug oxidation.)

The target in data set [2] is T3, CYP2C9 (Homo sapiens, UniProt P11712).
T3 construct: tissue Cyprotex Discovery Limited; host or cells: human liver microsomes
T3 sequence (P11712 whole entry): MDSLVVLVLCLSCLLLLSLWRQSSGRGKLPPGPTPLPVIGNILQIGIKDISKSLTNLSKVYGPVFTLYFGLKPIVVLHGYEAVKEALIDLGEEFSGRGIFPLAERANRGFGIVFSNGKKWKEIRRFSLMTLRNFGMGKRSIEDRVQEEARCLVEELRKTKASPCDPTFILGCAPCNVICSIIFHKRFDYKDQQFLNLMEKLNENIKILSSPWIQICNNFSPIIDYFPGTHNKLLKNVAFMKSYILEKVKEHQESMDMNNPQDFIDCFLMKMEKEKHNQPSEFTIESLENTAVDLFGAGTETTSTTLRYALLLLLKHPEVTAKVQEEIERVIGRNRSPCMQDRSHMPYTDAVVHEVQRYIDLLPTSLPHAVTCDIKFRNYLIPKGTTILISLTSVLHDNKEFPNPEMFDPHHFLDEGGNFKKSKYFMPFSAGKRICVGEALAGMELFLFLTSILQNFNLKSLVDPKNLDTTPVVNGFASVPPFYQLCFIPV
The data set is described as above. The data set is classed as in vitro ADME. Particulars: human liver microsomes, isoform specific probe substrate.

Data set [3] has as its target CYP2D6 (relative to CYP19A1) (Homo sapiens, UniProt P10635). In words: in vitro. The following applies: Selectivity CYP19A1 compared with CYP2D6, ratio of CYP IC50 to CYP19A1 IC50.
Data set [4] has as its target T4, CYP3A4 (Homo sapiens, UniProt P08684).
T4 construct: using a human liver microsomal assay with a CYP isoform specific probe substrate; tissue Cyprotex Discovery Limited; host or cells: human liver microsomes
In words: CYP panel inhibition, human liver microsomal assay (Cyprotex). Particulars: human liver microsomes, isoform specific probe substrate. The data set is classed as in vitro ADME.

Data set [5] concerns the target T5, CYP3A4 (relative to CYP19A1) (Homo sapiens, UniProt P08684).
T5 construct: using a human liver microsomal assay with a CYP isoform specific probe substrate; tissue Cyprotex Discovery Limited; host or cells: human liver microsomes
The description is as above. The data set is classed as in vitro ADME. The following applies: human, human liver microsomes; ratio of CYP IC50 to CYP19A1 IC50; read-out: Selectivity CYP19A1 compared with CYP3A4.

Data set [6] concerns the target T6, CYP1A2 (Homo sapiens, UniProt P05177).
T6 construct: using a human liver microsomal assay with a CYP isoform specific probe substrate; tissue Cyprotex Discovery Limited; host or cells: human liver microsomes
T6 sequence (P05177 1-516): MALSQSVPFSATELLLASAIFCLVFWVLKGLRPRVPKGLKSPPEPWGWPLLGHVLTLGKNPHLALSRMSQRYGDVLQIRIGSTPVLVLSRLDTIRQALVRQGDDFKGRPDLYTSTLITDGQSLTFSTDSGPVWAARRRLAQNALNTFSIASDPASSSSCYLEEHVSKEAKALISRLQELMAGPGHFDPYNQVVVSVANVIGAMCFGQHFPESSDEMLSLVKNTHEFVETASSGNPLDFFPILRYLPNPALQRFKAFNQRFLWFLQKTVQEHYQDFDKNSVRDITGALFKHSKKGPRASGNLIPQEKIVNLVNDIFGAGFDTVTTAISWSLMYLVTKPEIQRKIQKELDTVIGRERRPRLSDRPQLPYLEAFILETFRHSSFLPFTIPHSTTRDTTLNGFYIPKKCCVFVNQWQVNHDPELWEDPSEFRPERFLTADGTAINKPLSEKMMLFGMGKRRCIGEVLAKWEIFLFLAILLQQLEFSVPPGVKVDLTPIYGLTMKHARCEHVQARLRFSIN
The description is as above. The class given is in vitro ADME. Particulars: human liver microsomes, isoform specific probe substrate.

In data set [7] the target is T7, CYP1A2 (relative to CYP19A1) (Homo sapiens, UniProt P05177).
T7 construct: using a human liver microsomal assay with a CYP isoform specific probe substrate; tissue Cyprotex Discovery Limited; host or cells: human liver microsomes
T7 sequence (P05177 1-516): T6 sequence (P05177 1-516)
The description is as above. Particulars: human, human liver microsomes; ratio of CYP IC50 to CYP19A1 IC50; read-out: Selectivity CYP19A1 compared with CYP1A2. The data set is classed as in vitro ADME.

Another data set concerns the target CYP2D6 (Homo sapiens, UniProt P10635). The data set is described as above. Particulars: read-out: CYP2D6 IC50; human liver microsomes, isoform specific probe substrate.
Data set [8] deals with T8, CYP2C19 (Homo sapiens, UniProt P33261).
T8 construct: using a human liver microsomal assay with a CYP isoform specific probe substrate; tissue Cyprotex Discovery Limited; host or cells: human liver microsomes
T8 sequence (P33261 whole entry, canonical isoform): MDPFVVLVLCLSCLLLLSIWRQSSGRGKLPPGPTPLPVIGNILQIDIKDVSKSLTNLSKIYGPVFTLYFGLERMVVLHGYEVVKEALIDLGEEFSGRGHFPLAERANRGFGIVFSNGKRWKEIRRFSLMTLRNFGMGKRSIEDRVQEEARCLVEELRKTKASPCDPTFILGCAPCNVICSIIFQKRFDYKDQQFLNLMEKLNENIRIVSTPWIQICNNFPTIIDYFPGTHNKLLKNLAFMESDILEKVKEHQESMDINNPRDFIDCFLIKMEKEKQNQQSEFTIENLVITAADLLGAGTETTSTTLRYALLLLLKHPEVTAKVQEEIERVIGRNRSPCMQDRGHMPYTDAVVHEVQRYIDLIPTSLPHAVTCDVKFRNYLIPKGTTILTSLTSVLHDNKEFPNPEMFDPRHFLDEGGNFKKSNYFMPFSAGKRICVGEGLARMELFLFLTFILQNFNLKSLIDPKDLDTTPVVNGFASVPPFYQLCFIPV
The data set is described as above. The data set is classed as in vitro ADME. Particulars: human liver microsomes, isoform specific probe substrate.

The target of data set [9] is T9, CYP2C19 (relative to CYP19A1) (Homo sapiens, UniProt P33261).
T9 construct: using a human liver microsomal assay with a CYP isoform specific probe substrate; tissue Cyprotex Discovery Limited; host or cells: human liver microsomes
T9 sequence (P33261 whole entry, canonical isoform): as above
The data set is described as above. The data set is classed as in vitro ADME. Particulars: human, human liver microsomes; ratio of CYP IC50 to CYP19A1 IC50; read-out: Selectivity CYP19A1 compared with CYP2C19.

Another data set deals with CYP2A6. Also on record: method as in PMID 19198839, PMID 28977209. Particulars: cited from earlier work.
The subject of data set [10] is CYP2C19. Also on record: method as in PMID 19198839, PMID 28977209. The following applies: cited from earlier work.
Data set [11] concerns CYP3A4. The following applies: cited from earlier work.
Data set [12] relates to CYP1A2. The following applies: cited from earlier work.
For data set [13], the system named is CYP2C9. Particulars: cited from earlier work.
For data set [14] the following is noted: heterocyclic nitrogen basicity; cited from earlier work.
Where [15] appears, read: JEG-3 cells, 0.001–10 nM inhibitor, 1 h incubation, triplicates, read-out: CYP19A1 IC50.

T2 sequence (P11712 whole entry, canonical isoform): as the sequence (P11712 whole entry) above
Sequence of CYP2D6 (P10635 whole entry, canonical isoform): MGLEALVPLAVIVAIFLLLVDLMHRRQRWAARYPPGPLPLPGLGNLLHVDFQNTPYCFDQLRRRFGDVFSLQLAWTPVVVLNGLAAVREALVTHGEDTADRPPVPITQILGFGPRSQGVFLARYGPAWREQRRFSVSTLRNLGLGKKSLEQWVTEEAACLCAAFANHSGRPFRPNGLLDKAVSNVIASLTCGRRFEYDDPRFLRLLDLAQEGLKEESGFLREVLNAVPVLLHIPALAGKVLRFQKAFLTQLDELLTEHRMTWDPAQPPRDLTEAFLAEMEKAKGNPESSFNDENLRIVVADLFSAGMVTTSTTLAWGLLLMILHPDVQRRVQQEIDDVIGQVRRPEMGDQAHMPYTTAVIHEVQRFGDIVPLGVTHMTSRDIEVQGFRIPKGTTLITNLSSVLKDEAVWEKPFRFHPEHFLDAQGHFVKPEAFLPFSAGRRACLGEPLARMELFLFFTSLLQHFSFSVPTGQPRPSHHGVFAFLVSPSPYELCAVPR
Sequence of CYP2D6 (relative to CYP19A1) (P10635 whole entry): as the sequence (P10635 whole entry, canonical isoform) above
T4 sequence (P08684 whole entry, canonical isoform): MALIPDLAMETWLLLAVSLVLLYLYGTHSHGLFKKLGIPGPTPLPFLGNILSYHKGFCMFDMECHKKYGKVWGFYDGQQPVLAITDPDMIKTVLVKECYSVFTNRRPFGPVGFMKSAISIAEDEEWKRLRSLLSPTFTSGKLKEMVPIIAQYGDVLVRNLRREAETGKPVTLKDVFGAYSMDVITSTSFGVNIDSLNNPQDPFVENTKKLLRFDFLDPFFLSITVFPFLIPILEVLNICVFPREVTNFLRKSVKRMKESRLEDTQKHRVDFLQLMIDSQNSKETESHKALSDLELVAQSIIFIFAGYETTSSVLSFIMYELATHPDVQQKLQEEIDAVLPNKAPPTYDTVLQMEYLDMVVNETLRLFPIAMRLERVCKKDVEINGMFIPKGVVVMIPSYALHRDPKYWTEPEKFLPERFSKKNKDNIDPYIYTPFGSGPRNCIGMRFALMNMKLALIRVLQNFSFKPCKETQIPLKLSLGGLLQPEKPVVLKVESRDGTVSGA
T5 sequence (P08684 whole entry, canonical isoform): as above

By IC50 is commonly meant the concentration that inhibits the measured activity by half. With `COc1ccc2cc(C(O)(c3ccc(Br)cc3)c3cccnc3)oc2c1` (stereo not drawn) [Compound 4c, (4-Bromophenyl)(6-methoxybenzofuran-2-yl)(pyridin-3-yl)methanol], the IC50 on Aromatase (CYP19A1) (setting [15]) came out at 0.0004 µM.
Take `COc1ccc2cc(C(O)(c3cccnc3)c3ccc(Cl)cc3Cl)oc2c1` (stereo not drawn) [Compound 4d, (2′,4′-Dichlorophenyl)(6-methoxybenzofuran-2-yl)(pyridin-3-yl)methanol]: on Aromatase (CYP19A1) (setting [15]), the IC50 is 0.0019 µM.
Consider `CC#CCOc1ccc2cc(C(O)(c3ccc(F)cc3)c3cccnc3)oc2c1` (stereo not drawn) [Compound 10a, (6-(But-2-yn-1-yloxy)benzofuran-2-yl)(4-fluorophenyl)(pyridin-3-yl)methanol], for which the IC50 at Aromatase (CYP19A1) (setting [15]) was around 0.01 µM.
As for `CC#CCOc1ccc2cc(C(O)(c3ccc(Cl)cc3)c3cccnc3)oc2c1` (stereo not drawn) [Compound 10b, (6-(But-2-yn-1-yloxy)benzofuran-2-yl)(4-chlorophenyl)(pyridin-3-yl)methanol], the IC50 at Aromatase (CYP19A1) (setting [15]) came to 0.00105 µM.
As to `CC#CCOc1ccc2cc(C(O)(c3ccc(Br)cc3)c3cccnc3)oc2c1` (stereo not drawn) [Compound 10c, (4-Bromophenyl)(6-(but-2-yn-1-yloxy)benzofuran-2-yl)(pyridin-3-yl)methanol], the selectivity ratio in [1] is 5900; in data set [3], above 30000; in [5], 4070; in data set [7], above 30000; in data set [9], 892. Besides, the IC50 on CYP2C9 [2] is 4900 ± 940 nM; at CYP3A4 [4] it was 3380 ± 510 nM; on CYP1A2 [6] it was above 25000 nM; at Aromatase (CYP19A1) (CYP19A1 value restated in μM in CYP profile table, read-out: IC50, CYP isoform 19A1), 0.00083 µM; on Aromatase (CYP19A1) (setting [15]), 0.00083 µM; at CYP2D6, above 25000 nM. This molecule also registered an IC50 against CYP2C19 [8] of 740 ± 160 nM.
Regarding `CC#CCOc1ccc2cc(C(O)(c3cccnc3)c3ccc(Cl)cc3Cl)oc2c1` (stereo not drawn) [Compound 10d, (6-(But-2-yn-1-yloxy)benzofuran-2-yl)(2,4-dichlorophenyl)(pyridin-3-yl)methanol], the IC50 on Aromatase (CYP19A1) (setting [15]) was above 0.01 µM.
`CCC#CCOc1ccc2cc(C(O)(c3ccc(F)cc3)c3cccnc3)oc2c1` (stereo not drawn) [Compound 11a, (4-Fluorophenyl)(6-(pent-2-yn-1-yloxy)benzofuran-2-yl)(pyridin-3-yl)methanol]: the IC50 at Aromatase (CYP19A1) (setting [15]) is around 0.01 µM.
Turning to `CCC#CCOc1ccc2cc(C(O)(c3ccc(Cl)cc3)c3cccnc3)oc2c1` (stereo not drawn) [Compound 11b, (4-Chlorophenyl)(6-(pent-2-yn-1-yloxy)benzofuran-2-yl)(pyridin-3-yl)methanol], the IC50 at Aromatase (CYP19A1) (setting [15]) amounted to 0.00092 µM.
Consider `CCC#CCOc1ccc2cc(C(O)(c3ccc(Br)cc3)c3cccnc3)oc2c1` (stereo not drawn) [Compound 11c, (4-Bromophenyl)(6-(pent-2-yn-1-yloxy)benzofuran-2-yl)(pyridin-3-yl)methanol], for which, at Aromatase (CYP19A1) (setting [15]), the IC50 turned out to be 0.0049 µM.
As to `CCC#CCOc1ccc2cc(C(O)(c3cccnc3)c3ccc(Cl)cc3Cl)oc2c1` (stereo not drawn) [Compound 11d, (2,4-Dichlorophenyl)(6-(pent-2-yn-1-yloxy)benzofuran-2-yl)(pyridin-3-yl)methanol], the IC50 at Aromatase (CYP19A1) (setting [15]) is above 0.01 µM.
`N#Cc1ccc(C(c2ccc(C#N)cc2)n2cncn2)cc1` [Letrozole]: the “inhibition of CYP2A6” value with CYP2A6 is given as “significant competitive inhibition”. In addition, the “inhibition of CYP2C19” value in the data set on CYP2C19 [10] is given as “modest inhibition”.
On to `CC(C)(C#N)c1cc(Cn2cncn2)cc(C(C)(C)C#N)c1` [anastrozole], for which the “inhibition of CYP3A4” value in the data set with CYP3A4 [11] is reported as “some inhibition”. Also, in the data set with CYP1A2 [12], the “inhibition of CYP1A2” value is “some inhibition”. Besides, the “inhibition of CYP2C9” value with CYP2C9 [13] is “some inhibition”.
The term pKa denotes the negative logarithm of the acid dissociation constant. `c1nnn[nH]1` [tetrazole]: the pKa in data set [14] was 4.8.
